Experimental data from patent publication US11214803B2, “Modulators of YAP1 expression” (Ionis Pharmaceuticals, Inc., priority 2019, dated 2022).
Strand notation (5' to 3'): a small letter for the sugar, then the base; units joined by * are phosphorothioate-linked, units joined directly phosphodiester-linked; [ ] holds rarer units or linkages, { } end groups; capitals alone tell only the bases. k = constrained ethyl (cEt); [5mC] = 5-methylcytosine; d = 2'-deoxy (DNA)

System: Yap1 mRNA
Assay: Dose-dependent inhibition of human Yap1 in A-431 cells (Example 8, 10,000 cells per well, RTS4814)
Assay type: cell-based
Settings: free uptake, approximately 48 hours, RTS4814; for Yap1 mRNA, % UTC: A-431 cells, 10,000 cells per well; for IC50: A-431 cells, linear regression on log/linear plot
Protocol: Modified oligonucleotides described in the studies above were tested at various doses in A-431 cells. Cultured A-431 cells at a density of 10,000 cells per well were treated using free uptake with modified oligonucleotides diluted to concentrations described in the tables below. After approximately 48 hours, Yap1 mRNA levels were measured as previously described using the Human Yap1 primer-probe set RTS4814. Yap1 mRNA levels were normalized to total RNA content, as measured by RIBOGREEN®. Results are presented in the tables below as percent control of the amount of Yap1 mRNA relative to untreated control cells (% UTC). IC50s were calculated using a linear regression on a log/linear plot of the data in excel.

| Substance | Yap1 mRNA, % UTC (31.3 nM) | Yap1 mRNA, % UTC (125.0 nM) | Yap1 mRNA, % UTC (500.0 nM) | Yap1 mRNA, % UTC (2000.00 nM) | IC50 |
| --- | --- | --- | --- | --- | --- |
| 1075137 (kG*kA*kT*dT*dA*dA*dA*dT*dA*d[5mC]*dT*dG*dA*k[5mC]*k[5mC]*kA; antisense) [compound 1075137] | 70 % UTC | 22 % UTC | 8 % UTC | 4 % UTC | 0.1 µM |
| 1075138 (kA*kA*kT*dA*dA*dT*dA*dG*dA*dT*dA*d[5mC]*dT*kG*k[5mC]*k[5mC]; antisense) [compound 1075138] | 66 % UTC | 27 % UTC | 8 % UTC | 5 % UTC | 0.05 µM |
| 1075143 (k[5mC]*k[5mC]*kT*dT*dA*dT*dT*dA*dG*dT*d[5mC]*dA*dG*kT*kT*k[5mC]; antisense) [compound 1075143] | 59 % UTC | 21 % UTC | 5 % UTC | 3 % UTC | < 0.02 µM |
| 1075146 (kG*kT*kA*dT*dT*dA*dA*dG*dG*dG*dA*dT*dT*kT*kT*k[5mC]; antisense) [compound 1075146] | 67 % UTC | 38 % UTC | 16 % UTC | 8 % UTC | 0.1 µM |
| 1075207 (k[5mC]*kT*kA*dT*dT*dA*dA*dA*dT*dG*dA*dG*d[5mC]*kA*k[5mC]*k[5mC]; antisense) [compound 1075207] | 82 % UTC | 51 % UTC | 17 % UTC | 7 % UTC | 0.1 µM |
| 1075233 (kG*kT*kA*dA*dT*dT*dT*dA*dT*d[5mC]*dA*dG*d[5mC]*k[5mC]*kA*kT; antisense) [compound 1075233] | 45 % UTC | 12 % UTC | 5 % UTC | 3 % UTC | < 0.02 µM |
| 1075242 (k[5mC]*kA*kG*dG*dG*dA*dT*dA*dA*dT*dT*dA*d[5mC]*kT*kA*kA; antisense) [compound 1075242] | 71 % UTC | 39 % UTC | 18 % UTC | 12 % UTC | 0.1 µM |
| 1075243 (k[5mC]*kT*kT*dA*dG*dT*dA*dA*dG*dA*dA*dT*dT*kG*kT*k[5mC]; antisense) [compound 1075243] | 50 % UTC | 18 % UTC | 7 % UTC | 5 % UTC | < 0.02 µM |
| 1075401 (antisense k[5mC]*kG*kA*dT*dT*dA*dA*dA*dA*d[5mC]*dA*d[5mC]*dT*kG*kG*kT) [compound 1075401] | 62 % UTC | 26 % UTC | 11 % UTC | 7 % UTC | 0.04 µM |
| 1075457 (antisense kA*kG*kT*dA*dA*dT*dA*dT*dG*dT*dA*d[5mC]*dA*kT*kG*kG) [compound 1075457] | 52 % UTC | 21 % UTC | 8 % UTC | 6 % UTC | < 0.02 µM |
| 1075458 (antisense k[5mC]*k[5mC]*kA*d[5mC]*dA*dA*dT*dA*dT*dA*d[5mC]*dT*d[5mC]*k[5mC]*kA*kA) [compound 1075458] | 74 % UTC | 43 % UTC | 17 % UTC | 6 % UTC | 0.1 µM |
| 1075465 (antisense kG*kA*kT*dT*dT*dA*dT*dT*dG*dA*dA*d[5mC]*dT*kG*kA*kG) [compound 1075465] | 75 % UTC | 35 % UTC | 14 % UTC | 9 % UTC | 0.1 µM |
| 1075498 (k[5mC]*kA*kT*dT*dA*dT*dA*dT*dA*dA*dT*dG*d[5mC]*kA*kG*kG; antisense) [compound 1075498] | 82 % UTC | 40 % UTC | 21 % UTC | 16 % UTC | 0.1 µM |
| 1075686 (kG*kT*kA*dA*dT*dT*dA*d[5mC]*dA*dG*dT*dG*dT*k[5mC]*kT*k[5mC]; antisense) [compound 1075686] | 72 % UTC | 44 % UTC | 18 % UTC | 14 % UTC | 0.1 µM |
| 1075689 (k[5mC]*kA*kA*d[5mC]*dT*dA*dT*dA*d[5mC]*dA*dA*dG*dG*k[5mC]*kA*kA; antisense) [compound 1075689] | 97 % UTC | 59 % UTC | 19 % UTC | 8 % UTC | 0.2 µM |
| 1075712 (kG*kA*k[5mC]*dG*d[5mC]*dG*dA*dA*dA*dT*dA*d[5mC]*dT*kT*kA*k[5mC]; antisense) [compound 1075712] | 69 % UTC | 38 % UTC | 13 % UTC | 7 % UTC | 0.1 µM |
| 1075744 (kT*kT*k[5mC]*dG*dG*dG*dT*dT*dA*dG*d[5mC]*dA*dG*kA*k[5mC]*kT; antisense) [compound 1075744] | 55 % UTC | 22 % UTC | 9 % UTC | 7 % UTC | < 0.02 µM |
| 1075748 (kG*kT*kA*dA*dA*dT*d[5mC]*dA*dA*dG*dT*dT*dG*k[5mC]*kA*kT; antisense) [compound 1075748] | 81 % UTC | 36 % UTC | 12 % UTC | 7 % UTC | 0.1 µM |
| 1075749 (kA*kA*kT*dT*dA*dT*dG*dA*dA*dT*dG*dA*dT*kG*kG*kG; antisense) [compound 1075749] | 46 % UTC | 22 % UTC | 7 % UTC | 4 % UTC | < 0.02 µM |
| 1075778 (k[5mC]*kA*kT*dT*dT*dA*dT*dA*d[5mC]*d[5mC]*dA*dG*dG*k[5mC]*kA*k[5mC]; antisense) [compound 1075778] | 56 % UTC | 29 % UTC | 10 % UTC | 5 % UTC | 0.03 µM |
| 1075781 (k[5mC]*kA*kT*dA*dT*dA*dT*dT*dG*dT*dG*dA*d[5mC]*kT*kT*k[5mC]; antisense) [compound 1075781] | 52 % UTC | 15 % UTC | 4 % UTC | 3 % UTC | < 0.02 µM |
| 1075784 (kA*kT*kT*dT*dT*dA*dT*dA*dG*dG*dG*d[5mC]*d[5mC]*kA*kT*kT; antisense) [compound 1075784] | 54 % UTC | 18 % UTC | 5 % UTC | 3 % UTC | < 0.02 µM |
| 1075785 (k[5mC]*kA*kT*dT*dT*dT*dA*dT*dA*dG*dG*dG*d[5mC]*k[5mC]*kA*kT; antisense) [compound 1075785] | 29 % UTC | 7 % UTC | 3 % UTC | 3 % UTC | < 0.02 µM |
| 1075808 (kG*k[5mC]*kA*dA*dT*dA*dG*dA*dG*dT*dA*dA*d[5mC]*k[5mC]*kA*kG; antisense) [compound 1075808] | 38 % UTC | 9 % UTC | 4 % UTC | 4 % UTC | < 0.02 µM |
